Data: US20250163387A1, “HUMAN PITUITARY NEUROENDOCRINE TUMOR ORGANOIDS AND METHODS OF MAKING AND USING THE SAME” (ARIZONA BOARD OF REGENTS OF THE UNIVERSITY OF ARIZONA, A …, priority 2022, published 2025)

Columns and labels:
Assay type in all cases: cell-based, human
SSTR5 = test: Differential expression of SSTR5 in iPSC generated pituitary tumor organoids
[1] = system: hPITOs generated from CD patients; test: High-throughput drug screen, MTS assay; conditions: 1 uM, 72 hrs
Description: Patient adenoma-derived pituitary organoids were grown in 96-well plates and treated with 147 small molecules taken from the NCI AOD9 compound library for 72 hrs. (https://dtp.cancer.gov/organization/dscb/obtaining/available_plates.html). Drugs were diluted from 10 mM DMSO stock plates into 100 uM DMSO working stocks with a final concentration of 1 uM. All vehicle controls were treated with 0.1% DMSO. Organoid proliferation was measured using CellTiter 96® AQueous One Solution Cell Proliferation Assay kit (MTS, Promega, G3582) according to the manufacturer's instruction. Organoid death was calculated based on the absorbance readings at 490 nm, collected from the MTS assay relative to the vehicle controls. Drug screens were performed with biological replicates in same screen. Drugs were selected based on their ability to target key signaling pathways and clinical relevance to the treatment. Drug sensitivity is represented by cell viability and is significant at <0.5 suppressive effect of the drugs. The percent cell viability relative to the vehicle control was calculated. Correlation coefficient across each organoid were calculated using Pearson method to assess confidence in replication. Variance Component was detected for each drug across all organoids. A random effect model was run with a single random factor for each drug and estimated variance was calculated by rejecting the null hypothesis that there isn't variation among samples. The drug responses were grouped by variance factor large (vc>100), median (100>vc>50), and small (vc<50). Heatmap was used to display the differential responses in cell viability for the drugs.
Tumor recurrence can occur in as many as 30-50% of CD patients after successful surgical treatment. Unfortunately, bilateral adrenalectomy is the chosen surgical treatment for patients with persistent CD [35]. Bilateral adrenalectomy leads to the increased risk for development of Nelson's syndrome (progressive hyperpigmentation due to ACTH secretion and expansion of the residual pituitary tumor). Although the risk of developing Nelson's syndrome following adrenalectomy can be reduced by 50% with stereotactic radiotherapy, there is a need to develop medical therapies that directly target the pituitary adenoma. Thus, we established a high-throughput drug screening assay using patient-derived pituitary organoids. […] The replicates behaved consistently with the drug response with the correlation scores of >0.8 for these samples (FIG. 3a). We estimated the variance component for each drug across all organoids. […] The drug responses were grouped by variance factor large, median, and small. The larger the variance the more variable is the drug response across the organoids. […]

SSTR2 = test: Differential expression of SSTR2 in iPSC generated pituitary tumor organoids
iPSC^ctrl organoids [2] = test: Nuclear irregularity index (NII) morphometric analysis; conditions: 500 nM
Description: (§1) Nuclear Morphometric Analysis (NMA) using treated organoids was performed based on a published protocol that measures cell viability based on the changes in nuclear morphology of the cells using nuclear stain Hoechst or DAPI [30]. Images of organoid nuclei were analyzed using the ImageJ Nuclear Irregularity Index (NII) plugin for key parameters that included cell area, radius ratio, area box, aspect, and roundness. Using the published spreadsheet template, the NII of each cell was calculated with the following formula: NII=Aspect−Area Box+Radius Ratio+Roundness. The area vs NII of vehicle-treated cells were plotted as a scatter plot using the template and considered as the normal cell nuclei. The same plots were generated for each condition, and the NII and area of treated cells were compared to the normal nuclei, and classified as one of the following NMA populations: Normal (N; similar area and NII), Mitotic (S; similar area, slightly higher NII), Irregular (I; similar area, high NII), Small Regular (SR; apoptotic, low area and NII), Senescent (LR; high area, low NII), Small Irregular (SI; low area, high NII), or Large Irregular (LI; high area, high NII). […] The percentage of cells in each NII classification category were calculated and plotted as a histogram using GraphPad Prism.

iPSC^USP48MV organoids [3] = test: as above; conditions: 500 nM
Description: as §1

FKBP5 = test: GR modulation: GR target gene FKBP5 expression in PitNET organoids
iPSC^ctrl organoids [4] = test: ACTH secretion ELISA of conditioned media; conditions: 500 nM
Description: (§2) Concentration of secreted ACTH in conditioned media that was collected from organoid cultures was measured using the Human ACTH ELISA Kit (Novus Biologicals, NBP2-66401) according to the manufacturer's protocol. The enzyme-substrate reaction was measured spectrophotometrically (BioTek Gen5 Micro Plate Reader Version 3.11) at a wavelength of 450 nm and the ACTH concentration (pg/mL) was interpolated using a standard curve with a 4-parameter logistic regression analysis using GraphPad Prism (Version 9.2.0).

iPSC^USP48MV organoids [5] = test: ACTH secretion ELISA of conditioned media; conditions: 500 nM
Description: as §2

[6] = iPSC organoids (ctrl, USP48MI, USP48MV, USP8), 500 nM, vs vehicle
[7] = iPSC^ctrl organoids, drug alone (Mife 500 nM, GANT 5 uM, Keto 10 uM, Dexa 100 nM)

Question: `CC#C[C@]1(O)CC[C@H]2[C@@H]3CCC4=CC(=O)CCC4=C3[C@@H](c3ccc(N(C)C)cc3)C[C@@]21C` [Mifepristone] was tested. Which “expression of SSTR5” value (SSTR5; [6]) did it give?
Answer: The value was “significant induction”.

Question: What about the “differential expression of SSTR5” value (SSTR5; [7]) of the same molecule?
Answer: Its value is “significantly induced”.

Question: And the “response of the adenoma cells within the organoids” value ([1]; hPITO7, 10 and 25)?
Answer: The value was roughly 0%.

Question: And the “response of the adenoma cells within the organoids” value ([1]; hPITO34 and hPITO35)?
Answer: Its value is 50%.

Question: And the “expression of SSTR2” value (SSTR2; [6])?
Answer: The value was “significant induction”.

Question: And the “differential expression of SSTR2” value (SSTR2; [7])?
Answer: The value was “significantly induced”.

Question: What about the “apoptotic cells by nuclear morphology (NII)” value (iPSC^ctrl organoids [2]) of the same molecule?
Answer: The value was “not observed”.

Question: And the “apoptotic cells by nuclear morphology (NII)” value (iPSC^USP48MV organoids [3])?
Answer: The value was “not observed”.

Question: And the “differential expression of FKBP5” value (FKBP5)?
Answer: The value was “significantly reduced”.

Question: What about the “magnitude of ACTH secretion induced” value (iPSC^ctrl organoids [4]) of the same molecule?
Answer: The value was “significantly greater than the effect of relacorilant”.

Question: And the “magnitude of ACTH secretion induced” value (iPSC^USP48MV organoids [5])?
Answer: The value was “significantly greater than the effect of relacorilant”.
